Data taken from patent publication US20130196903A1 (priority 2010, published 2013).

Legend:
dengue virus = dengue virus infectivity; cited from earlier work
[1] = test system: wild-type (WT) strain of Measles Virus (MV); assay: Antiviral activity against a wild-type strain of Measles Virus; type: cell-based
Experimental: The antiviral activity of a cholesterol-derivatized inhibitors derived from the sequence of Human Parainfluenza virus type 3 (HPIV3) was tested against a wild-type (WT) strain of Measles Virus (MV).

Substance	antiviral activity (dengue virus)	fold more potent than the underivatized peptide [1] [fold]
AWDFGSLGGVFTSIGKALHQVF (Dengue virus 2 (DV2)) [DV2^419-440]	very weak antiviral activity	–
Ac-VALDPIDISIVLNKAKSDLEESKEWIRRSNGKLDSIGSGSG-C(PEG4-Chol) (Ac-VALDPIDISIVLNKAKSDLEESKEWIRRSNGKLDSIGSGSG-{C(PEG4-cholesterol)})	–	5
[(Ac-VALDPIDISIVLNKAKSDLEESKEWIRRSNGKLDSIGSGSG-C(Mal-PEG4)]2-Chol	–	250
